Read-outs that look alike come from different tables or passages of the source.
Key:
[1] = biological target: T1, human acetylcholinesterase (Homo sapiens, UniProt P22303); experiment: biochemical; format: biochemical; conditions: for Inhibition of human acetylcholinesterase (apparent IC50), result in words: tested until solubility limit
T1 construct: human erythrocyte membranes as a AChE source; from tissue; host or cells: human erythrocyte membranes

[2] = tested on: muscarinic receptors; experiment: Muscarinic receptors binding, radioligand [3H]-N-methylscopolamine, rat striatal membranes; conditions: at 10^−5 M
Procedure: The ability of prodrugs of formula G and/or inhibitors of formula G+ to nonselectively bind muscarinic receptors was evaluated with conventional radioligand binding method.
The ability of bio precursors and/or inhibitors to nonselectively bind muscarinic receptors was evaluated with conventional radioligand binding method.
The assay mixture (PBS Buffer, 300 μL), rat striatal membranes as a muscarinic receptors source (1 g/L, 100 μL), unknown compound at various concentrations (50 μL) and ^3H—N-methylscopolamine as specific radioligand of muscarinic receptors. The 60.0 minutes incubation time at room temperature was selected after preliminary experiments performed to ensure that the equilibrium between studied ligand and radioligand on muscarinic receptors is reached. The reaction was stopped by rapid vacuum filtration through Whatman GF/C filter paper (pre-soaked in a solution of polyethylenimine (0.1%) to reduce binding to filters). Filters were subsequently washed with ice-cold buffer (PBS Buffer, 3×1.5 mL) and placed overnight in 3 mL of Ready-Safe scintillation cocktail (Beckman Coulter, Inc.). Radioactivity was measured using a Wallac liquid scintillation counter. Each experiment was carried out twice in duplicate.

[3] = tested on: Swiss albinos mice; experiment: Acute toxicity in mice; format: in vivo; conditions: female and male Swiss albinos mice, intraperitoneal injection; compound 67 tested under its inclusion form as compound 82
Procedure: The Acute toxicity studies were carried out using female and male Swiss albinos mice (25-35 g). Most of the compounds show a very low toxicity, namely with a DL50 higher than 10 mg/kg. […] The pharmacokinetic study was carried out using female and male Swiss albinos mice for the determination of half-life and distribution volume of a compound of the invention
The toxicity studies were carried out using female and male Swiss albinos mice (25-35 g). Animals were kept in a temperature-controlled environment (23±2° C.) with a 12 h light-dark cycle and food and water were freely available. The animals were divided into one control group and five treated groups, each group consisting of six animals. The control group received saline and each treated group received the studied ligand in a dose of 1, 3, 10, 30 and 100 mg/kg by intraperitoneal injection. The animals were observed continuously for 3 h, and then they were observed each hour during 72 h after administering the compound in order to observe any changes in general behaviour or other physiological activities. At the end of the experiment, animals were sacrificed by cervical displacement.

[4] = Pharmacokinetic: half-life and distribution volume in mice, plasma HPLC; conditions: both, Swiss albino, mouse, in vivo, ip, 10 mg/kg
[5] = human erythrocyte membranes, acetylthiocholine iodide, pH 7.4, 10 min, room temperature, read-out: Inhibition of human acetylcholinesterase (apparent IC50)

T1 sequence (P22303 32-617 isoform P22303-2 limits assumed): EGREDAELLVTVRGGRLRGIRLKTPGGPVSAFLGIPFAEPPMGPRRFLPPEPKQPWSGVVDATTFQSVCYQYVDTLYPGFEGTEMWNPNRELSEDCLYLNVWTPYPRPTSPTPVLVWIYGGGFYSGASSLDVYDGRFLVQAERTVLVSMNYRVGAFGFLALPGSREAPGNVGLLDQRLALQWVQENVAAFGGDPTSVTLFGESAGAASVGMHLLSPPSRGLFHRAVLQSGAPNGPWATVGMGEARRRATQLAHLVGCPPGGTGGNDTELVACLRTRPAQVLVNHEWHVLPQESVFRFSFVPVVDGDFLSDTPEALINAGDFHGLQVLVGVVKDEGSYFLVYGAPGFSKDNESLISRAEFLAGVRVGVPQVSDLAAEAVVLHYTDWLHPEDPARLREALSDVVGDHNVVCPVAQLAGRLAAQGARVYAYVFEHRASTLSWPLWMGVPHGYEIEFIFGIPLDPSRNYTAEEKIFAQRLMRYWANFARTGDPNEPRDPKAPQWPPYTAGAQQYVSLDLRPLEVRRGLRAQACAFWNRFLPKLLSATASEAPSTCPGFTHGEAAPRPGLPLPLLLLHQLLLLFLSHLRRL

Row | Compound | Inhibition of human acetylcholinesterase (apparent IC50), result in words ([1]; human erythrocyte membranes) | Displacement of [^3H] N-methylscopolamine from muscarinic receptors [2] | IC50 [1, 5] [nM] | other results
1 | CCNC(=O)Oc1cccc2c1CC(C(=O)OC)=CN2C [Example 76, Methyl 1-Methyl-5-(N-Ethylcarbamate)-1,4-Dihydroquinoline-3-Carboxylate] | No inhibition until | – | – | –
2 | COC(=O)c1cc2c(OC(=O)N(C)C)cccc2[n+](C)c1 [Compound 67E, Methyl 5-(N,N-dimethylcarbamate)-1-methylquinolinium-3-carboxylate triflate] | – | 0% at 10^−5 M | – | IC50 [1]: 110 nM
3 | CCCNC(=O)C1=CN(C)c2cc(OC(=O)N(C)C)ccc2C1 [Example 78, 1-Methyl-3-(N-Propylcarboxamido)-7-(N,N-Dimethylcarbamate)-1,4-Dihydroquinoline] | No inhibition until | 25% at 10^−5 M | – | –
4 | CN(C)C(=O)Oc1cccc2c[n+](C)ccc12 [Example 71, 5-(N,N-dimethylcarbamate)-2-methylisoquinolinium triflate] | – | – | 50 | –
5 | CCCNC(=O)c1cc2ccc(OC(=O)N(C)C)cc2[n+](C)c1 [Compound 78C, 7-(N,N-dimethylcarbamate)-3-(N-propylcarboxamido)-1-methylquinolinium triflate] | – | 20% at 10^−5 M | 50000 | –
6 | CN(C)C(=O)Oc1cccc2c1cc(C(=O)N(C)C)c[n+]2C [Compound 69D, 5-(N,N-dimethylcarbamate)-3-(N,N-dimethylcarboxamido)-1-methylquinolinium triflate] | – | 0% à 10^−5 M | 15 | –
7 | CNC(=O)C1=CN(C)c2cccc(OC(=O)N(C)C)c2C1 [Example 68, 5-(N,N-dimethylcarbamate)-1-methyl-3-(N-methylcarboxamido)-1,4-dihydroquinoline] | No inhibition until | 0% at 10^−5 M | – | –
8 | CN(C)C(=O)Oc1cccc2c1CC(C(=O)N1CCOCC1)=CN2C [Example 70, morpholine 4-[5-(N,N-dimethylcarbamate)-1-methyl-1,4-dihydroquinolyl-3-carbonyl]] | No inhibition until | 0% à 10^−5 M | – | –
9 | CCOC(=O)c1cc2ccc(OC(=O)N(C)C)cc2[n+](C)c1 [Compound 1D, ethyl 1-methyl-7-(N,N-dimethylcarbamate)quinolinium-3-carboxylate triflate] | – | 0% at 10^−5 M | 500 | –
10 | COC(=O)c1cc2c(OC(=O)N(C)C)cc(OC(=O)N(C)C)cc2[n+](C)c1 [Example 73, Methyl 5,7-Bis(N,N-Dimethylcarbamate)-1-Methylquinolinium-3-Carboxylate Triflate] | – | – | > 10000 | –
11 | CN(C)C(=O)Oc1ccc2cc[n+](C)cc2c1 [Example 72, 7-(N,N-Dimethylcarbamate)-2-Methylisoquinolinium Triflate] | – | – | 5000 | –
12 | CCOC(=O)c1cc2c(OC(=O)N(C)C)cccc2[n+](C)c1 [Compound 2E, Ethyl 5-(N,N-dimethylcarbamate)-1-methylquinolinium-3-carboxylate triflate] | – | 0% at 10^−5 M | 7 | –
13 | COC(=O)C1=CN(C)c2cccc(OC(=O)N(C)C)c2C1 [Example 67, methyl 5-(N,N-dimethylcarbamate)-1-methyl-1,4-dihydroquinoline-3-carboxylate] | No inhibition until | 0% at 10^−5 M | – | Acute toxicity (DL50) [3]: 25 mg/kg; C0 [4]: 806 nM; half-life ([4]; Plasmatic half-life time T1/2, mice, intraperitoneal injection of 10 mg/kg of compound 67 under its inclusion form (example 82)): 14 min
14 | CN(C)C(=O)Oc1cccc2c1cc(C(=O)N1CCOCC1)c[n+]2C [Compound 70D, 5-(N,N-dimethylcarbamate)-1-methyl-3-(morpholinocarboxy)quinolinium triflate] | – | 0% à 10^−5 M | 860 | –
15 | CN(C)C(=S)Oc1cccc2c[n+](C)ccc12 [Example 75, 2-Methyl-5-(N,N-Dimethylthiocarbamate)-O-Isoquinolinium Triflate] | – | – | > 10000 | –
16 | CCOC(=O)C1=CN(C)c2cccc(OC(=O)N(C)C)c2C1 [Example 2, ethyl 1-methyl-5-(N,N-dimethylcarbamate)-1,4-dihydroquinoline-3-carboxylate] | No inhibition until | 0% at 10^−5 M | – | –
17 | CCOC(=O)C1=CN(C)c2cc(OC(=O)N(C)C)ccc2C1 [Example 1, ethyl 1-methyl-7-(N,N-dimethylcarbamate)-1,4-dihydroquinoline-3-carboxylate] | No inhibition until | 0% at 10^−5 M | – | –
18 | CCOC(=O)c1cc2cccc(OC(=O)N(C)C)c2[n+](C)c1 [Example 77, Ethyl 1-Methyl-8-(N,N-Dimethylcarbamate)Quinolinium-3-Carboxylate Triflate] | – | – | 8000 | –
19 | COC(=O)c1cc2cccc(OC(=O)N(C)C)c2[n+](C)c1 [Example 74, Methyl 8-(N,N-Dimethylcarbamate)-1-Methylquinolinium-3-Carboxylate Triflate] | – | – | 1400 | –
20 | CCOC(=O)c1ccc[n+](Cc2ccc(OC(=O)N(C)C)cc2)c1 [Example 80] | – | – | 227 | –
21 | CCNC(=O)Oc1cccc2c1cc(C(=O)OC)c[n+]2C [Compound 76B, Methyl 5-(N-ethylcarbamate)-1-methylquinolinium-3-carboxylate triflate] | – | – | 6000 | –
22 | CNC(=O)c1cc2c(OC(=O)N(C)C)cccc2[n+](C)c1 [Compound 68D, 5-(N,N-dimethylcarbamate)-1-methyl-3-(N-methylcarboxamido)quinolinium triflate] | – | 0% à 10^−5 M | 29 | –

From patent publication US7977354B2, “Heterocyclic compounds, their preparation and their use as medicaments, in particular as anti-alzheimer agents” (priority 2005, dated 2011)
